Columns and labels:
[1] = Beclomethasone Dipropionate (BDP) Aerodynamic Particle Size Distribution (APSD) by NGI; type: physicochemical; settings: Example 6 formulation, NGI 30 L/min, five actuations, average of three canisters
Procedure: APSD was determined using a Next Generation Impactor (NGI Model 170, Copley Scientific Limited UK) at a flow rate of 30±0.5 L/min drawn using a high-capacity pump (HCP5, Copley Scientific Limited, UK) the flow rate determined using a digital flow meter (Model 4043, TSI Instruments). The filter stage was fitted with a Whatman grade 934-AH glass microfiber filter. Units were tested at the start of life using a 3M Mark 6 actuator (3M, Loughborough, UK) with an exit orifice diameter of 0.25 mm and a jet length of 0.8 mm. Prior to testing, the inhaler was actuated five times to ensure the valve was primed after which the valve stem was cleaned and dried. The inhaler was then attached to the NGI with the use of an appropriate coupler and actuated five times into the NGI. The BDP was recovered from each component using methanol (HPLC grade, Thermo Fisher Scientific, Inc., Waltham, Mass.) using a volume of 10 mL for the stem/can, 30 mL for the throat/coupler, 5 mL for cups 1 to 4 and 20 mL for all other components. Recovery was performed using a rocker station (Gentle Rocker 4515, Copley Scientific Limited UK). Samples were assayed by reversed phase isocratic liquid chromatography using UV detection (Acquity H-Class UPLC, Waters Limited) with the parameter settings presented in Table 1. [table]

[2] = Salbutamol Sulphate Aerodynamic Particle Size Distribution (APSD) by NGI; type: physicochemical; settings: Example 7 formulation, NGI 30 L/min, six actuations, average of three canisters
Procedure: APSD was determined using a Next Generation Impactor as described in the BDP APSD test method. Prior to testing, the inhaler was actuated five times to ensure the valve was primed after which the valve stem was cleaned and dried. The inhaler was then attached to the NGI with the use of an appropriate coupler and actuated six times into the NGI. The Salbutamol sulphate was recovered from each component using a solution of acetonitrile/0.1% phosphoric acid in water (9:1 v/v) using a volume of 20 mL for the throat/coupler and 10 mL for all other components. Recovery was performed using a rocker station (Gentle Rocker, Copley Scientific Limited UK). Samples were assayed by reversed phase gradient liquid chromatography using UV detection (HP1100, Agilent Technologies UK Limited), with the parameter settings in Table 2 and Table 3. [table] [table]

[3] = stated in description, cited from earlier work

CCC(=O)OCC(=O)[C@@]1(OC(=O)CC)[C@@H](C)C[C@H]2[C@@H]3CCC4=CC(=O)C=C[C@]4(C)[C@@]3(Cl)[C@@H](O)C[C@@]21C [BDP, beclomethasone dipropionate]
BDP deposited: Actuator [1]: 10.8 µg | BDP deposited: Cup 1 [1]: 0.3 µg | BDP deposited: Cup 2 [1]: 0.1 µg | BDP deposited: Cup 3 [1]: 0.1 µg | BDP deposited: Cup 4 [1]: 0.8 µg | BDP deposited: Cup 5 [1]: 4.3 µg | BDP deposited: Cup 6 [1]: 7.4 µg | BDP deposited: Cup 7 [1]: 4.7 µg | BDP deposited: Filter [1]: 1.6 µg | BDP deposited: MOC [1]: 5.9 µg | BDP deposited: Stem [1]: 3.6 µg | BDP deposited: Throat/Coupler [1]: 59.0 µg

salbutamol sulphate [SS]
SS deposited: Actuator [2]: 7.9 µg | SS deposited: Cup 1 [2]: 0.20 µg | SS deposited: Cup 2 [2]: 0.07 µg | SS deposited: Cup 3 [2]: 0.45 µg | SS deposited: Cup 4 [2]: 2.5 µg | SS deposited: Cup 5 [2]: 3.7 µg | SS deposited: Cup 6 [2]: 2.1 µg | SS deposited: Cup 7 [2]: 0.60 µg | SS deposited: Filter [2]: 0.05 µg | SS deposited: MOC [2]: 0.29 µg | SS deposited: Stem [2]: 1.4 µg | SS deposited: Throat/Coupler [2]: 54.2 µg

O=C=O [carbon dioxide]
vapor pressure at about 20° C. ([3]; pure liquid propellant, about 20 °C): about 57 bar | vapor pressure at about 40° C. ([3]; pure liquid propellant, about 40 °C): about 80 bar | liquid to supercritical phase transition temperature or critical point temperature ([3]; pure propellant): about 31 °C

Source: US20230057979A1, “MEDICINAL COMPOSITIONS FOR CARBON DIOXIDE BASED METERED DOSE INHALERS” (KINDEVA DRUG DELIVERY L.P., priority 2020, published 2023)
